Laboratory results published in patent US6749832B2, “Labelled ascorbic acid derivatives” (Amersham PLC, priority 1999, dated 2004).

Legend:
[1] = tested on: MC3T3-E1 murine pre-osteoblast cells; assay: Standard cell uptake assay: competition for uptake of ^14C-ascorbic acid; type: cell-based; settings: for IC50: Mus musculus, competition with ^14C-ascorbic acid uptake into MC3T3-E1 cells; for Competition: competition with 125 μM ^14C-ascorbic acid for uptake into MC3T3-E1 cells, 60 min
Procedure: Unlabelled ascorbic acid derivatives of the present invention have been tested for their ability to compete for uptake of ^14C-ascorbic acid into MC3T3-E1 cells, a murine pre-osteoblast cell line. MC3T3-E1 cells are grown in tissue culture plates and the appropriate assay solution containing a standard concentration of ^14C-ascorbic acid plus a competing concentration of ascorbic acid derivative added to each well. The amount of ^14C-ascorbic acid taken up by the cells in 60 min is then measured.
Standard Cell Uptake Assay
Transport buffer: 134 mM NaCl, 5.4 mM KCl, 1.8 mM CaCl2, 0.8 mM MgSO4, 20 mM HEPES, 10 mM glucose, pH7.3, stored at room temperature
Assay buffer: Transport buffer+40 μM […] ^14C-ascorbic acid (Amersham Pharmacia Biotech)
Stock solution: 50 μCi in 50 μl Analar water, stored at −20° C.
Assay solution: 200 nCi ^14C-ascorbic acid in 200 μl assay buffer/well (125 μM)
Stop buffer: 200 μM phloretin in assay buffer, chilled to 4° C.
Lysis solution: 0.1% SDS in Analar water
MC3T3-E1 murine pre-osteoblast cells were seeded in a 24-well plate at 2×10^5 cells/well in 1 ml minimal essential media plus 10% FCS, penicillin and streptomycin. Cells were grown overnight at 37° C., 5% CO2. Assay buffer and solutions were prepared on the morning of the assay. Cells were examined under the microscope for confluence and viability. Growth media was removed using a Liquipippette and each well washed with 2×200 μl assay buffer. The appropriate assay solution was added to each well and the plate incubated at 37° C. for the required time. To stop the reaction, 0.5 ml chilled stop buffer was added to each well. Each well was then washed with 0.5 ml stop buffer. Cells were lysed in 0.1% SDS solution for approximately 10 min and solutions transferred to scintillation vials. Each well was then washed with assay buffer and this wash solution also transferred to the appropriate scintillation vial. Scintillation fluid (5 ml) was added to each vial, the vials vortexed and counted on a Rackbeta counter.

[2] = tested on: mineralising nodules of primary rat osteoblasts; assay: Autoradiography of mineralised bone nodules produced by cultured rat osteoblasts; type: cell-based; settings: 21-day culture period
Procedure: Foetus heads were collected and sprayed with 70% isopropanol. Calvaria were then removed by cutting the skin from the top of the head, making one incision through the calvaria from the external auditory meatus across behind the parietal bones and a second forward to above the eye sockets. When all the calvaria were isolated, they were rinsed with PBS (Ca^2+ and Mg^2+-free), then incubated in trypsin at 37° C. for 10 minutes. Calvaria were transferred into 0.2% collagenase (type II) in HBSS for 30 minutes at 37° C. This collagenase digestion was repeated for 60 minutes to release the osteoblast populations. Supernatant was removed and spun down to obtain a cell pellet. The pellet was resuspended in media, viable cells counted and plated out into a T75 flask. Once confluent, cells were subcultured into 6-multiwell plates at 2×10^4-2×10^5 cells/well in 3 ml medium containing 1 mM β-glycerophosphate. In addition ascorbic acid (50 μg/ml), ^14C-ascorbic acid (19.6 μCi/ml) or ^14C-compound 7 (2.8 μCi/ml) were incubated with osteoblasts over the culture period. Cells were fed two to three times per week and cultured for up to 21 days. Nodules became macroscopically visible at around 7-10 days and commenced mineralisation (assessed by Alizarin red staining) soon after. […]

[3] = reported in the literature; cited from earlier work

Row | Compound | IC50 [1] [µM] | Competition [1] | other results
1 | O=C1O[C@H]([C@@H](O)CO)C(O)=C1O [Ascorbic acid, ascorbic acid] | 258 | Yes | –
2 | O=C1OC(C(O)CSc2ccccc2)C(O)=C1O (stereo not drawn) [Compound 16] | 1850 | Yes | competition for uptake of ^14C-ascorbic acid into MC3T3-E1 cells (text) [1]: competed; competition for uptake of ^14C-ascorbic acid into MC3T3-E1 cells (text) ([1]; listed as compound 16): very weak
3 | O=C1O[C@H]([C@@H](O)CO)C(O)=C1O [^14C-ascorbic acid] | – | – | association with / accumulation in mineralised bone nodules (autoradiography) [2]: associated with the mineralising nodules
4 | O=C1O[C@H]([C@@H](O)C[18F])C(O)=C1O [^18F-DFA, 6-deoxy-6-[^18F]fluoro-L-ascorbic acid] | – | – | bone uptake [3]: very low

Further lines, with some results ahead:

Row | IC50 [1] [µM] | Compound | Competition [1] | other results
5 | 384 | O=C1O[C@H]([C@@H](O)COC(=O)c2ccc(I)cc2)C(O)=C1O [Compound 12, 6-O-(4-iodobenzoyl)-L-ascorbic acid] | Yes | –
6 | 796 | O=C(/C=C/I)OCC(O)C1OC(=O)C(O)=C1O (stereo not drawn) [Compound 15] | Yes | –
